# Results reported in publication PMC6556873, “Rapid Covalent-Probe Discovery by Electrophile-Fragment Screening” (Journal of the American Chemical Society, 2019).
# Where two headings read alike, the source gives them in different places.
# Key:
# in vitro [1] = assay: in vitro; design: species or system HB2, CCD841; conditions: human, hek293 cells
# NUDT7 = biological target: T1, NUDT7 (Homo sapiens, UniProt P0C024); design: Intact protein LC/MS covalent labelling, fragments in pools of five, 200 uM each, 4 °C; conditions: 24 h, 4 °C, pool of five; 200 µM; covalent
# T1 construct: residues 14-235, E. coli, pNIC28-Bsa4, N-terminal His6 tag removed by TEV, construct 26672 Da
# T1 sequence (P0C024 14-235): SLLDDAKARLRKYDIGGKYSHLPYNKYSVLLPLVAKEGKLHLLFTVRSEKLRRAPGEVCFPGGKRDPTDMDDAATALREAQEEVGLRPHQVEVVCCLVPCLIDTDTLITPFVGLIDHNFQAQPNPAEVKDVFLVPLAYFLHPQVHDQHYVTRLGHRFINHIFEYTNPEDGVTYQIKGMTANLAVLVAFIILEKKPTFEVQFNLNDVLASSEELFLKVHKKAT
# Experimental: (§1) Incubations were performed at 200 μM for each compound and 2 μM of protein (10 μM for BSA) for 24 h at 4 °C with moderate shaking. Incubation buffers varied among proteins (PBS pH 7.4 for QSOX1 and BSA; 10 mM HEPES pH 7.5, 0.3 M NaCl, 0.5 mM TCEP for PCAF, UPS8, and NUDT7; […]; 10 mM Na2HPO4 pH 7.5 100 mM NaCl 5 mM β-mercaptoethanol for NV3CP; 20 mM Na phosphate pH 7.5 for NNMT; […]. The reaction was stopped by quenching with formic acid, 0.4% final concentration. Each protein was incubated with the electrophilic library in pools of five compounds per well. The pool’s composition maximized the difference in mass between fragments in the same well. Incubations were performed with each fragment at 200 μM, for 24 h at 4 °C, to allow the screening of proteins that are not stable for long time periods at higher temperatures. Following incubation, we used intact protein [compound left out] chromatography/mass spectrometry (LC/MS) to identify the fragments and quantify their labeling (Figure 3A). […] There was good agreement between the percent of labeling of NUDT7 by 100 random individual compounds and that obtained in pools of five (R^2=0.78; Figure S6 and Data set 2 in the Supporting Information).
# PCAF = biological target: T2, PCAF (Homo sapiens, UniProt Q92831); design: Intact protein LC/MS covalent labelling, fragments in pools of five, 200 uM each, 4 °C; conditions: 24 h, 4 °C, pool of five; 200 µM; covalent
# T2 construct: gene KAT2B
# T2 sequence (Q92831 whole entry, the tested form may be a part): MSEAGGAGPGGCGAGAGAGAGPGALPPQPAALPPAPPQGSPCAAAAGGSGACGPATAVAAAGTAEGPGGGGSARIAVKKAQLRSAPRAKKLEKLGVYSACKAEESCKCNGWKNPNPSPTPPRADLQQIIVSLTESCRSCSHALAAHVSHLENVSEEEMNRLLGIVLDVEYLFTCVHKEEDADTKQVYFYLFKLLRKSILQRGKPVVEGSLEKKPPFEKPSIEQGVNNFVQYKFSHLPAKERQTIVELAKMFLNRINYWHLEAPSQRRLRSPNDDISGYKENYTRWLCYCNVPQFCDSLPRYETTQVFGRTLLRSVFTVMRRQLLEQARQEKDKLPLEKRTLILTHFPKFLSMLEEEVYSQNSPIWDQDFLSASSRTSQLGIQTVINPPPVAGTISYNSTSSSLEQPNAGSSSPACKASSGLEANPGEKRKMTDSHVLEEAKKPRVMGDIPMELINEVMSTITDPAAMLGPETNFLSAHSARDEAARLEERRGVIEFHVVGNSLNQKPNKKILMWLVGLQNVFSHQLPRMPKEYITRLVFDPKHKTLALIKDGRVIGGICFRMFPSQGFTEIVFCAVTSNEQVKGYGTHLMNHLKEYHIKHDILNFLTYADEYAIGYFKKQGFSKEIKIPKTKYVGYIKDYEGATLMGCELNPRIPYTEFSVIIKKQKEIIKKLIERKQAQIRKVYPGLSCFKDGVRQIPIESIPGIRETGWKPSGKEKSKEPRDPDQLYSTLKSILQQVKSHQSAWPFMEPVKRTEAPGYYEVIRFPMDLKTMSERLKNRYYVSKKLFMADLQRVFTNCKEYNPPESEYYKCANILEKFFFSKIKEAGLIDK
# Experimental: as §1
# OTUB2 (OTUB2A) = biological target: T3, OTUB2 (OTUB2A) (Homo sapiens, UniProt Q96DC9); design: Intact protein LC/MS covalent labelling, fragments in pools of five, 200 uM each, 4 °C; conditions: 24 h, 4 °C, pool of five; 200 µM; covalent
# T3 construct: full length residues 1-234, E. coli BL21(DE3)-R3, His tag removed by TEV, construct 27312 Da
# T3 sequence (Q96DC9 1-234): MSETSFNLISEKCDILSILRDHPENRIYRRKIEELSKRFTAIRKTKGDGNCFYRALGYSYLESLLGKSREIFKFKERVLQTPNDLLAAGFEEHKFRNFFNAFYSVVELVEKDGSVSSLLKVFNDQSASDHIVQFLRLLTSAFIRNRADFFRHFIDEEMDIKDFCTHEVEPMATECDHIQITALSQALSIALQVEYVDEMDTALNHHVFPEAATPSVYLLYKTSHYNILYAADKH
# Experimental: as §1
# BSA = biological target: T4, BSA (Bos taurus, UniProt P02769); design: Intact protein LC/MS covalent labelling, fragments in pools of five, 200 uM each, 4 °C; conditions: 24 h, 4 °C, pool of five; 200 µM; covalent
# T4 construct: gene ALB
# T4 sequence (P02769 whole entry, the tested form may be a part): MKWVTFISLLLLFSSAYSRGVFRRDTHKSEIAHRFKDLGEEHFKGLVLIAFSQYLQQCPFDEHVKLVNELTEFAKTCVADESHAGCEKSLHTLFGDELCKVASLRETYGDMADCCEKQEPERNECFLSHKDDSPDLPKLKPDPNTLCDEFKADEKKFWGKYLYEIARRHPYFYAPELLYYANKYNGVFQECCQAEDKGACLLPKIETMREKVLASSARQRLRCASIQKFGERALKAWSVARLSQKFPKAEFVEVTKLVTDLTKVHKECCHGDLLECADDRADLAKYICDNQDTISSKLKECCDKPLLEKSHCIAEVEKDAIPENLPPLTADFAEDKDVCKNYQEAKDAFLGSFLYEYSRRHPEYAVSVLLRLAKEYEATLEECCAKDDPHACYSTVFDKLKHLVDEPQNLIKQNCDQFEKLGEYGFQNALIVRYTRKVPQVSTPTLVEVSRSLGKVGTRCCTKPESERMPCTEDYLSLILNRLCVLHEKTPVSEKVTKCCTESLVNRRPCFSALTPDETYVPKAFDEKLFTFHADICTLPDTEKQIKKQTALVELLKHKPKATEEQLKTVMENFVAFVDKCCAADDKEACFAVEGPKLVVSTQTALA
# Experimental: as §1
# in vitro [2] = assay: in vitro; design: species or system HB2, HEK293; conditions: human, ccd841 cells
# in vitro [3] = assay: in vitro; design: species or system CCD841, HEK293; conditions: human, hb2 cells, read-out: HB-2 Cells Viability (%)
SMILES,"viability at 48 h, 10 µM (in vitro [1])",NUDT7 (NUDT7),PCAF (PCAF),OTUB2 (OTUB2 (OTUB2A)),BSA (BSA),"viability at 48 h, 10 µM (in vitro [2])","viability at 48 h, 10 µM (in vitro [3])"
O=C(CCl)N1CCN(C(=O)c2cccs2)CC1 [PCM-0102306],12.9%,0,0,0,0,63.6%,39.9%
O=C(CCl)Nc1ccccc1C(=O)O [PCM-0102307],78.8%,0,0,0,0,96.5%,105%
O=C(CCl)NC(=O)Nc1ccc(Br)cc1 [PCM-0102308],71.6%,0.17,0,0.1,0.11,89.9%,78.8%
O=C(CCl)Nc1ccccc1Br [PCM-0102312],92.9%,0.15,0,0,0,89.7%,90.8%
O=C(CCl)N(C1CCCC1)C1CCS(=O)(=O)C1 (centres unmarked) [PCM-0102313],42.7%,0.11,0,0,0,65.9%,64.5%
O=C(CCl)Nc1ccc(Cl)c([N+](=O)[O-])c1 [PCM-0102316],1.1%,0.28,0,0.36,0,1%,0.4%
Cc1ccc(NC(=O)CCl)cc1 [PCM-0102320],8.7%,0,0,0.24,0,63.2%,29.1%
O=C(CCl)Nc1cc(C(F)(F)F)ccc1N1CCCC1 [PCM-0102321],110%,0,0,0,0,116%,104%
O=C(CCl)Nc1ccc(C(F)(F)F)cc1 [PCM-0102323],5.5%,0.07,0,0.17,0,53.2%,11.1%
COc1ccc2c(c1)CCCN2C(=O)CCl [PCM-0102325],1.8%,0.12,0,0,0,40.2%,7.5%
O=C(CCl)Nc1ncc(Br)s1 [PCM-0102326],23%,0,0,0.06,0,47.7%,38%
O=C(CCl)N1CCN(S(=O)(=O)c2cccc(F)c2)CC1 [PCM-0102327],8.1%,0.13,0,0,0,45.3%,5.2%
O=C(CCl)Nc1ccc(F)c(F)c1 [PCM-0102328],1.4%,0,0,0.31,0.24,30.4%,14.3%
O=C(CCl)Nc1cccc2c1N=S=N2 [PCM-0102329],19.9%,0,0,0,0,50.1%,38.2%
O=C(CCl)Nc1cc2c(cc1Cl)OCCCO2 [PCM-0102331],10.3%,0.36,0,0.26,0,57.1%,17.2%
CC1CCCC(NC(=O)NC(=O)CCl)C1C (centres unmarked) [PCM-0102332],52.5%,0,0,0,0,71%,48.7%
O=C(CCl)NC(=O)Nc1ccc2c(c1)OCO2 [PCM-0102333],82.6%,0.29,0,0.53,0,98.4%,83.2%
CC(NC(=O)CCl)c1ccc(Cl)cc1 (centres unmarked) [PCM-0102334],68.5%,0,0,0.25,0,67.8%,78.4%
CS(=O)(=O)c1ccc(NC(=O)CCl)cc1 [PCM-0102335],2.7%,0.06,0,0.3,0,46%,37.1%
O=C(CCl)N1CCNC1=O [PCM-0102338],86.5%,0,0,0,0,98.6%,99.5%
N#CC(c1ccc(F)cc1)N1CCN(C(=O)CCl)CC1 (centres unmarked) [PCM-0102341],8.6%,0,0,0,0,60.3%,28.6%
CC(NC(=O)CCl)c1ccc2c(c1)OCCO2 (centres unmarked) [PCM-0102342],73.1%,0.08,0,0.57,0,87.2%,93.8%
O=C(CCl)N1CCN(S(=O)(=O)c2ccc(F)c(Cl)c2)CC1 [PCM-0102343],2.6%,0.12,0,0,0,14.3%,1.4%
CN(Cc1ccc(Cl)cc1)C(=O)CCl [PCM-0102344],2.1%,0.34,0,0,0,24%,4.3%
CN(C)C(=O)c1cccc(NC(=O)CCl)c1 [PCM-0102345],13.8%,0.1,0,0,0,61.4%,52.9%
Cl.O=C(CCl)N1CCN(CC(=O)N2CCCC2)CC1 [PCM-0102346],99%,0,0,0,0,80.8%,98.1%
C=CC(=O)Nc1ccc2c(c1)OCO2 [PCM-0102347],79.7%,0,0,0,0,106%,109%
CC(C)(C)c1cc(NC(=O)CCl)on1 [PCM-0102348],60.9%,0,0,0,0,59.9%,32.8%
CN(Cc1ccc(Cl)c(Cl)c1)C(=O)CCl [PCM-0102349],1.4%,0.59,0,0,0,3.9%,1.7%
